Assay results reported in patent US20140057840A1, “ANTI-ANDROGENIC AGENT, SEBUM SECRETION BLOCKER, HAIR GROWTH STIMULANT, AND FOOD OR BEVERAGE” (LOTTE CO., LTD., priority 2009, published 2014).

System: hamster sebocytes
Assay: Sebocyte culture test (sebum synthesis amount, Oil Red O staining)
Type: cell-based, golden hamster
Conditions: concentration of 1×10^−5 M; microscopic observation and absorbance measurement; medium with 1×10^−6M testosterone; about 2 weeks
Experimental: 1. The test was carried out using a hamster sebocyte culture kit KB-1000 (manufactured by KURABO […] LTD.).
The sebocyte cell derived from the auricula of a normal golden hamster was inoculated in a 24-well plate in a density of 5.0×10^4 cells/well. During the test, the cell was cultured in medium containing testosterone in a concentration of 1×10^−6M.
2. The cell was cultured for several days until confluent, and the medium was exchanged with medium containing the test sample. The medium was exchanged with sample medium every other day and the culture was continued for about 2 weeks.
In this test, cow's lactoferrin was prepared to be used as the lactoferrin, and spironolactone was used as a control.
3. Then, using a sebum synthesis assay kit SE-3001 (manufactured by KURABO […], LTD.), a WST-8 solution was added to each well and incubated for 30 minutes at 37° C. The supernatant was assayed at a wavelength of 450 nm, and the number of viable cell was counted.
4. Further, the supernatant was stained with Oil Red O and observed under a microscope while extracted with 100% isopropanol and measured at a wavelength of 520 nm for the lipid synthesis amount. […]
Comparison of lipid synthesis amount per cell=absorbance B/absorbance A
Absorbance A: cell number measured value (450 nm)
Absorbance B: lipid synthesis amount measured value (520 nm)

## CC(=O)S[C@@H]1CC2=CC(=O)CC[C@]2(C)[C@H]2CC[C@@]3(C)[C@@H](CC[C@@]34CCC(=O)O4)[C@H]12 [spironolactone, reference compound]
  sebum synthesis amount compared with the control: decreased sebum synthesis amount compared with the control
